Experimental data from publication PMC4516315 (Journal of Medicinal Chemistry, 2015).

Target: T1, recombinant P. falciparum DHODH (Plasmodium falciparum, UniProt Q08210)
T1 sequence (Q08210 24-569): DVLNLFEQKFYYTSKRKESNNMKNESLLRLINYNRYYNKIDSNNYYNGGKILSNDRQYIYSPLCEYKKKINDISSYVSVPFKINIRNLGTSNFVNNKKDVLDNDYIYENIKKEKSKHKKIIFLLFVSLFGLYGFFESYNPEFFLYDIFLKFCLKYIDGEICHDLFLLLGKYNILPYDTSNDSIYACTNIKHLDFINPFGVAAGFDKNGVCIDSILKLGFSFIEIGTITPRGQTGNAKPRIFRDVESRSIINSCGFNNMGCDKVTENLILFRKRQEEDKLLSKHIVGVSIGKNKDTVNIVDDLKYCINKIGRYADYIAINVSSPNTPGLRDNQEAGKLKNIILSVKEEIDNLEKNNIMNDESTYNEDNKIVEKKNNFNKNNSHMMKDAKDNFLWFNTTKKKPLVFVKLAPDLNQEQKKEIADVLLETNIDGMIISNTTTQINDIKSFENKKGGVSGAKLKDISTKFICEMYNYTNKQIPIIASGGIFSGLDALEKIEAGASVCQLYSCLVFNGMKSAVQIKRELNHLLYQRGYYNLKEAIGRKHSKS
Assay: P. falciparum DHODH enzymatic assay
Settings: biochemical assay

SMILES	inhibition of recombinant P. falciparum DHODH
Cc1ccc(-n2nc(OC(C)C)c(Oc3c(F)cccc3F)c2C)nn1 [22a, 3-(4-(2,6-Difluorophenoxy)-3-isopropoxy-5-methyl-1H-pyrazol-1-yl)-6-methylpyridazine]	completely devoid of effect
Cc1c(Oc2c(F)cccc2F)c(OC(C)C)nn1-c1ccc(C2CC2)nn1 [compound 10q, 3-Cyclopropyl-6-(4-(2,6-difluorophenoxy)-3-isopropoxy-5-methyl-1H-pyrazol-1-yl)pyridazine]	completely devoid of effect
